Read-outs that look alike come from different tables or passages of the source.
Tests used:
[1] = Plasma concentrations of vanoxerine and its hydroxyl metabolites in patients after a 300 mg dose of vanoxerine (LC-MS/MS); format: in vivo, human; conditions: 300 mg vanoxerine; for Concentrations (plasma), average: all 25 patients; for High concentration group average (plasma concentration): high concentration group (10 patients); for Low concentration group average (plasma concentration): low concentration group (15 patients)
Protocol: Each patient gave blood samples before administration of their dose, and then again at nine further time points, 30 minutes after admiration, 1, 2, 3, 4, 6, 8, 12, and 24 hours post administration.
Samples: A total of 270 human plasma samples were received (in duplicate). The samples were shipped frozen over dry ice. The samples were stored at −70° C. (nominal) until analysis.
Frozen samples were thawed at room temperature. Samples, calibrators, QC samples, sample blanks (blank plasma) and reagent blanks (water) were processed at room temperature. To 200 μL aliquots of each sample, calibrator, and QC sample are added 20 μL of 500 ng/mL of internal standard solution. A sample blank (blank plasma) and reagent blank (water) were also prepared, but without addition of internal standard solution (20 μL of diluent was added instead). To each sample, 200 μL of 1% ammonium hydroxide solution were added and vortex mixed. 3.0 mL of methyl tert-butyl ether were added and then vortex mix for 30 seconds. The sample is then centrifuged for 5 minutes at 4000 rpm and then transferred for about 30 minutes at −70° C. (nominal). The upper (organic) layer was transferred into an evaporation tubes and then evaporated under N2 stream at ˜50° C. for about 20 min. Samples were then reconstituted in 1000 μL reconstitution solution (80:20:0.1 water: acetonitrile: formic acid). Samples were mixed, allow to stand for about 3 minutes and mixed again. 900 μL of the sample solution was transferred to a 1.5 mL microcentrifuge tube and centrifuged for 5 minutes at 14000 rpm at room temperature. 800 μL of the sample solution was transferred to a glass autosampler vial, and then transferred to the autosampler for analysis. Samples were separated using reversed-phase liquid chromatography with a C18 column.
Detection was based on electro-spray interface in positive mode (ESI+) LC-MS/MS technique, using Micromass Quattro Premier XE MS/MS detector with MassLynx and QuanLynx software version 4.1. […] The MRM transition for all hydroxyl metabolites was m/z 467→203.

[2] = healthy subjects, cited from earlier work
[3] = 1 h post administration, 1.00 = below LLOQ
[4] = 2 h post administration, 1.00 = below LLOQ
[5] = 3 h post administration, 1.00 = below LLOQ
[6] = 4 h post administration, 1.00 = below LLOQ
[7] = 6 h post administration, 1.00 = below LLOQ
[8] = 8 h post administration, 1.00 = below LLOQ
[9] = 12 h post administration, 1.00 = below LLOQ
[10] = 24 h post administration, 1.00 = below LLOQ
[11] = .5 h post administration, 1.00 = below LLOQ
[12] = time -15 (before administration), 1.00 = below LLOQ

Compound: 16-hydroxyl vanoxerine [M02]
- Concentrations (plasma), average [1, 3]: 1.02 ng/mL
- Concentrations (plasma), average [1, 4]: 1.02 ng/mL
- Concentrations (plasma), average [1, 5]: 1.01 ng/mL
- Concentrations (plasma), average [1, 6]: 1.01 ng/mL
- Concentrations (plasma), average [1, 7]: 1.00 ng/mL
- Concentrations (plasma), average [1, 8]: 1.00 ng/mL
- Concentrations (plasma), average [1, 9]: 1.00 ng/mL
- Concentrations (plasma), average [1, 10]: 1.00 ng/mL
- Concentrations (plasma), average [1, 11]: 1.00 ng/mL
- Concentrations (plasma), average [1, 12]: 1.00 ng/mL
- High concentration group average (plasma concentration) [1, 3]: 1.00 ng/mL
- High concentration group average (plasma concentration) [1, 4]: 1.05 ng/mL
- High concentration group average (plasma concentration) [1, 5]: 1.03 ng/mL
- High concentration group average (plasma concentration) [1, 6]: 1.02 ng/mL
- High concentration group average (plasma concentration) [1, 7]: 1.00 ng/mL
- High concentration group average (plasma concentration) [1, 8]: 1.00 ng/mL
- High concentration group average (plasma concentration) [1, 9]: 1.00 ng/mL
- High concentration group average (plasma concentration) ([1]; 24 h post administration): 0.00 ng/mL
- High concentration group average (plasma concentration) [1, 11]: 1.00 ng/mL
- High concentration group average (plasma concentration) [1, 12]: 1.00 ng/mL
- Low concentration group average (plasma concentration) [1, 3]: 1.03 ng/mL
- Low concentration group average (plasma concentration) [1, 4]: 1.00 ng/mL
- Low concentration group average (plasma concentration) [1, 5]: 1.00 ng/mL
- Low concentration group average (plasma concentration) [1, 6]: 1.00 ng/mL
- Low concentration group average (plasma concentration) [1, 7]: 1.00 ng/mL
- Low concentration group average (plasma concentration) [1, 8]: 1.00 ng/mL
- Low concentration group average (plasma concentration) [1, 9]: 1.00 ng/mL
- Low concentration group average (plasma concentration) [1, 10]: 1.00 ng/mL
- Low concentration group average (plasma concentration) [1, 11]: 1.00 ng/mL
- Low concentration group average (plasma concentration) [1, 12]: 1.00 ng/mL

Compound: 17-hydroxyl vanoxerine [M01]
- Concentrations (plasma), average [1, 3]: 7.51 ng/mL
- Concentrations (plasma), average [1, 4]: 19.65 ng/mL
- Concentrations (plasma), average [1, 5]: 18.68 ng/mL
- Concentrations (plasma), average [1, 6]: 16.42 ng/mL
- Concentrations (plasma), average [1, 7]: 11.48 ng/mL
- Concentrations (plasma), average [1, 8]: 8.98 ng/mL
- Concentrations (plasma), average [1, 9]: 6.30 ng/mL
- Concentrations (plasma), average [1, 10]: 3.66 ng/mL
- Concentrations (plasma), average [1, 11]: 1.93 ng/mL
- Concentrations (plasma), average [1, 12]: 1.00 ng/mL
- High concentration group average (plasma concentration) [1, 3]: 8.64 ng/mL
- High concentration group average (plasma concentration) [1, 4]: 28.00 ng/mL
- High concentration group average (plasma concentration) [1, 5]: 29.64 ng/mL
- High concentration group average (plasma concentration) [1, 6]: 24.93 ng/mL
- High concentration group average (plasma concentration) [1, 7]: 18.08 ng/mL
- High concentration group average (plasma concentration) [1, 8]: 14.50 ng/mL
- High concentration group average (plasma concentration) [1, 9]: 9.98 ng/mL
- High concentration group average (plasma concentration) ([1]; 24 h post administration): 1.72 ng/mL
- High concentration group average (plasma concentration) [1, 11]: 2.55 ng/mL
- High concentration group average (plasma concentration) [1, 12]: 1.00 ng/mL
- Low concentration group average (plasma concentration) [1, 3]: 6.76 ng/mL
- Low concentration group average (plasma concentration) [1, 4]: 14.09 ng/mL
- Low concentration group average (plasma concentration) [1, 5]: 11.38 ng/mL
- Low concentration group average (plasma concentration) [1, 6]: 10.34 ng/mL
- Low concentration group average (plasma concentration) [1, 7]: 7.08 ng/mL
- Low concentration group average (plasma concentration) [1, 8]: 5.30 ng/mL
- Low concentration group average (plasma concentration) [1, 9]: 3.67 ng/mL
- Low concentration group average (plasma concentration) [1, 10]: 2.66 ng/mL
- Low concentration group average (plasma concentration) [1, 11]: 1.52 ng/mL
- Low concentration group average (plasma concentration) [1, 12]: 1.00 ng/mL

Compound: Fc1ccc(C(OCCN2CCN(CCCc3ccccc3)CC2)c2ccc(F)cc2)cc1 [Vanoxerine, 1-[2-[bis(4-fluorophenyl)methoxy]ethyl]-4-(3-phenylpropyl)piperazine]
- side-effects ([2]; daily repetitive dose of 50 mg): no side-effects should be expected
- side-effects ([2]; higher doses of vanoxerine): some effects were seen with regard to concentration difficulties, increase systolic blood pressure, asthenia, and a feeling of drug influence

Reference: patent US20160304477A1 (LAguna Pharmaceuticals, Inc., priority 2013, published 2016)
